pEC50, pIC50: −log10 of the molar value. Read-outs that look alike come from different tables or passages of the source.

The source of these data is article PMC6149668, “In Silico Identification and In Vitro Evaluation of Natural Inhibitors of Leishmania major Pteridine Reductase I” (Molecules : A Journal of Synthetic Chemistry and Natural …, 2017).

For series [1], the target named is T1, recombinant LmPTR1 (Leishmania major pteridine reductase I) (Leishmania major, UniProt Q01782).
T1 construct: poly-His (N); made in house; host or cells: E. coli BL21 (DE3)
The experiment in a line: biochemical. Conditions: for % Inhibition at c = 50 µM: inhibitor 50 µM. As to the method:
(§1) In order to assess the inhibitory activity of the compounds identified in silico, spectrophotometric inhibition assays were performed on recombinant LmPTR1, measuring the decreasing concentration of NADPH at 340 nm as a linear kinetic parameter for LmPTR1 activity at saturating concentrations of NADPH (co-substrate) and folic acid (substrate). First, each in silico hit was added to a concentration of 50 µM, and the resulting linear plots of absorbance vs. time were compared with those recorded in the absence of an inhibitor.
The determination of the inhibitory activity of the in silico hits was carried out by a UV-Vis spectrophotometric assay on recombinantly produced LmPTR1. In order to assess the catalytic activity of LmPTR1, the oxidation of NADPH to NADP^+ was followed with a Hitachi U-2900 UV-Vis spectrophotometer at 340 nm as a linear kinetic parameter. Reference measurements without the addition of inhibitors were used to determine the full catalytic activity (100% value), and subsequent measurements with inhibitory compounds were calculated accordingly. The total assay volume of 1 mL consisted of sodium phosphate buffer (50 mM NaH2PO4, 100 mM NaCl, pH 6), 250 µM NADPH, 35 µg LmPTR1, 22.5 µM folic acid, and varying inhibitor concentrations. The tested inhibitors were dissolved in DMSO (10 mM stock solutions), and appropriate volumes were added to the assays to obtain the desired assay concentrations in such a way that a DMSO concentration between 0.1–1% resulted. […] Initial tests were performed at an inhibitor concentration of 50 µM in triplicate.

A short description of series [2]: Solubility under the LmPTR1 assay conditions. Type of series: physicochemical. Conditions: sodium phosphate buffer pH 6, DMSO 0.1–1%. On the procedure:
as §1, with “inhibitor. […] For 2,3-dehydrosilybin A (1), complete inhibition could not be achieved. The maximum of inhibition achieved with this compound was 64% at a concentration of 50 µM. […] Plots of the inhibitory activity as a function of concentration for compounds 1 to 6 are shown in the Supplementary Materials Figures S10–S15, and the resulting IC50 and EC50 values are reported in Table 1.” for “inhibitor.”
The determination of the inhibitory activity of the in silico hits was carried out by a UV-Vis spectrophotometric assay on recombinantly produced LmPTR1. […] Reference measurements without the addition of inhibitors were used to determine the full catalytic activity (100% value), and subsequent measurements with inhibitory compounds were calculated accordingly. […] No inhibition of LmPTR1 could be detected by DMSO itself at the mentioned concentrations. […]

Setting [3] is: pH 6, inhibitor 50 µM, 250 µM NADPH, 22.5 µM folic acid, pH 6, triplicate, n.i. = no inhibition at 50 µM, read-out: % Inhibition at c = 50 µM.
[4] abbreviates: in brackets: 95% confidence interval, n = 4 to 7 concentrations, non-linear regression, read-out: IC50.
The mark [5] stands for this setting: 250 µM NADPH, 22.5 µM folic acid, pH 6, triplicate, n.i. = no inhibition at 50 µM.

T1 sequence (Q01782 whole entry): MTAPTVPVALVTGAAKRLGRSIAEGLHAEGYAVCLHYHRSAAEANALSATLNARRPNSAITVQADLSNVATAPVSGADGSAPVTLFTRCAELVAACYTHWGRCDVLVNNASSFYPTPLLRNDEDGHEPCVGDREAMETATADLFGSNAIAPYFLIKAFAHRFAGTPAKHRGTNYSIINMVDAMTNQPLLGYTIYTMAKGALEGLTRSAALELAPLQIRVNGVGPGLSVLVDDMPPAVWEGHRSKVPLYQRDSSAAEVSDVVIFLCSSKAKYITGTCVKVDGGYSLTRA

`COc1cc([C@H]2Oc3cc(-c4oc5cc(O)cc(O)c5c(=O)c4O)ccc3O[C@@H]2CO)ccc1O` [2,3-dehydrosilybin A]: the pEC50 in series [1] was 5.14. The inhibition at 50 µM was 64% in series [1] (at a concentration of 50 µM, concentration-effect curve, read-out: maximum of inhibition achieved) and above 50% in series [1] (setting [3]). For the same compound, in series [2], the “solubility under the assay conditions” value is “limited solubility”.

Consider `O=C(O[C@@H]1Cc2c(O)cc(O)cc2O[C@@H]1c1ccc(O)c(O)c1)c1cc(O)c(O)c(O)c1` [(−)-epicatechin-3-gallate], for which the inhibition at 50 µM in series [1] (setting [3]) was determined as 24%.

As for `O=c1cc(-c2ccc(O)cc2)oc2cc(OC3OC(CO)C(O)C(O)C3O)cc(O)c12` (stereo not shown) [apigenin-7-glucoside], the pIC50 in series [1] was 4.36. In series [1] (setting [3]), the inhibition at 50 µM was above 50%.

For `CC(C)=CCc1c(O)cc2oc3cc(O)c(O)c(CCC(C)(C)O)c3c(=O)c2c1O` [garcinone C], the pIC50 in series [1] (setting [4]) is 4.58.

For the compound `COc1cc([C@@H]2Oc3ccc([C@H]4Oc5cc(O)cc(O)c5C(=O)[C@@H]4O)cc3O[C@H]2CO)ccc1O` [isosilybin B], the inhibition at 50 µM in series [1] (pH 6, read-out: % Inhibition at c = 50 µM) is 26%.

Regarding `COc1cc(O)c(CC=C(C)C)c2c1C(=O)CC(c1ccc(O)cc1)O2` (stereo not shown) [isoxanthohumol], the inhibition at 50 µM in series [1] (setting [3]) turned out to be 22%.

As for `COc1ccc([C@H]2OC[C@H]3[C@@H]2CO[C@@H]3c2cc(OC)c(OC)c(OC)c2)cc1OC` [magnolin], in series [1] (setting [5]), the “% Inhibition at c = 50 µM” value is “n.i”.

With `O=c1c(O)c(-c2cc(O)c(O)c(O)c2)oc2cc(O)cc(O)c12` [myricetin], in series [1] (setting [4]), the pIC50 was 4.68. For the same compound, the inhibition at 50 µM in series [1] (pH 6, read-out: % Inhibition at c = 50 µM, inhibitor 50 µM, 250 µM NADPH, 22.5 µM folic acid, pH 6, triplicate, n.i. = no inhibition at 50 µM) was above 50%.

For the compound `O=C(/C=C/c1ccc(O)c(O)c1)O[C@H](Cc1ccc(O)c(O)c1)C(=O)O` [rosmarinic acid], in series [1] (setting [3]), the inhibition at 50 µM was determined as 20%.

For the compound `O=C(/C=C/c1ccc(O)c(O)c1/C=C/c1ccc(O)c(O)c1)O[C@H](Cc1ccc(O)c(O)c1)C(=O)O` [salvianolic acid A], the pIC50 in series [1] is 4.37. Moreover, the inhibition at 50 µM in series [1] (setting [3]) is above 50%.

On to `COc1cc([C@H]2Oc3cc([C@H]4Oc5cc(O)cc(O)c5C(=O)[C@@H]4O)ccc3O[C@@H]2CO)ccc1O` [silybin A], for which the inhibition at 50 µM in series [1] (setting [3]) worked out at 14%.

For the compound `COc1cc([C@@H]2Oc3cc([C@H]4Oc5cc(O)cc(O)c5C(=O)[C@@H]4O)ccc3O[C@H]2CO)ccc1O` [silybin B], in series [1] (setting [3]), the inhibition at 50 µM worked out at 19%.

Turning to `COc1cc([C@@H]2Oc3c(O)cc([C@H]4Oc5cc(O)cc(O)c5C(=O)[C@@H]4O)cc3[C@H]2CO)ccc1O` [silychristin], in series [1] (setting [3]), the inhibition at 50 µM is 24%.

For `C=C(C)[C@H](CC=C(C)C)Cc1c(O)cc(O)c2c1O[C@H](c1ccc(O)cc1O)CC2=O` [sophoraflavanone G], in series [1] (setting [4]), the pIC50 was 4.72.

In the case of icariside II, the “% Inhibition at c = 50 µM” value in series [1] (setting [5]) worked out at 35%.

In the case of phillyrin, the “% Inhibition at c = 50 µM” value in series [1] (setting [5]) is “n.i”.

The pEC50 is the negative decadic logarithm of the EC50, by convention in mol/L. Broadly, the inhibition is the share of the control response that was lost under treatment. As a reminder, the pIC50 is the negative decadic logarithm of the IC50, by convention in mol/L. The term % Inhibition denotes the share of the control response that was lost under treatment.
